The subject of data set [1] is Lemna aequinoctialis. The data set is described as follows: Phytotoxicity against Lemna aequinoctialis assessed as growth inhibition at 100 ug/ml. Type of data set: functional. The conditions noted are these: read-out: GI.
In data set [2] the test system is Lemna aequinoctialis. As to the kind of experiment: Phytotoxicity against Lemna aequinoctialis assessed as growth inhibition at 1000 ug/ml. Type of data set: functional. The conditions noted are these: read-out: GI.
A further data set relates to Nakaseomyces glabratus. The data set is described as follows: Antifungal activity against Candida glabrata at 200 ug/ml after 7 days. The conditions noted are these: 168 h. In kind it is functional.
Another data set concerns Fusarium solani. As to the kind of experiment: Antifungal activity against Fusarium solani at 200 ug/ml after 7 days. The conditions noted are these: 168 h. Type of data set: functional.
A further data set relates to Microsporum canis. As to the kind of experiment: Antifungal activity against Arthroderma otae at 200 ug/ml after 7 days. In kind it is functional. The conditions noted are these: 168 h.
In a further data set the test system is Aspergillus flavus. The data set is described as follows: Antifungal activity against Aspergillus flavus at 200 ug/ml after 7 days. The conditions noted are these: 168 h. In kind it is functional.
A further data set concerns Candida albicans. The data set is described as follows: Antifungal activity against Candida albicans at 200 ug/ml after 7 days. The conditions noted are these: 168 h. In kind it is functional.
Data set [3] in a line: Toxicity inArtemia salina (brine shrimp) larvae assessed as mortality after 24 hr. Type of data set: organism-based. The conditions noted are these: artemia salina, in vivo; read-out: LD50.
The species named for data set [4] is Homo sapiens. As to the kind of experiment: Inhibition of […] urease using urea as substrate at 0.01 uM preincubated for 5 min before substrate addition measured after 10 min relative to control.
Data set [5] is filed under the species Homo sapiens. The data set is described as follows: Inhibition of […] urease using urea as substrate at 0.1 uM preincubated for 5 min before substrate addition measured after 10 min relative to control.
Data set [6] is filed under the species Homo sapiens. As to the kind of experiment: Inhibition of […] urease using urea as substrate at 1 uM preincubated for 5 min before substrate addition measured after 10 min relative to control.
For data set [7], the species on record is Homo sapiens. As to the kind of experiment: Inhibition of […] urease using urea as substrate at 10 uM preincubated for 5 min before substrate addition measured after 10 min relative to control.
For data set [8], the species on record is Homo sapiens. As to the kind of experiment: Inhibition of […] urease using urea as substrate at 100 uM preincubated for 5 min before substrate addition measured after 10 min relative to control.
Data set [9] relates to Lemna aequinoctialis. As to the kind of experiment: Phytotoxicity against Lemna aequinoctialis assessed as growth inhibition at 10 ug/ml. The conditions noted are these: read-out: GI. Type of data set: functional.
Data set [10] is described as follows: Inhibition of […] urease using urea as substrate preincubated for 5 min before substrate addition measured after 10 min.

Calls of active or inactive are those of the source. The rule behind the calls is not given here.

As for `COc1ccc(NC(=S)N/N=C2\C(=O)Nc3ccc([N+](=O)[O-])cc32)cc1`, the inhibition of growth at 100 µg/mL in the data set on Lemna aequinoctialis [1] came out at 15%. Also, in the data set on Lemna aequinoctialis [2], the inhibition of growth at 1000 µg/mL was 25%. Moreover, the inhibition at 200 µg/mL in the data set with Nakaseomyces glabratus was determined as 0%; with Fusarium solani, 0%; with Microsporum canis, 0%; with Aspergillus flavus, 20%; with Candida albicans, 0%. Moreover, the LC50 at 24 h in data set [3] was > 1340 µM. Moreover, the inhibition worked out at 47.6% in the data set listed under Homo sapiens [4]; 44% in the data set listed under Homo sapiens [5]; 33.6% in the data set listed under Homo sapiens [6]; 38.6% in the data set filed under Homo sapiens [7]; 46.6% in the data set listed under Homo sapiens [8]. The inhibition of growth at 10 µg/mL with Lemna aequinoctialis [9] came to 10%.

In the case of `O=C1Nc2ccc([N+](=O)[O-])cc2/C1=N/NC(=S)Nc1ccc(Br)cc1`, in the data set with Lemna aequinoctialis [1], the inhibition of growth at 100 µg/mL was 15%. Besides, in the data set on Lemna aequinoctialis [2], the inhibition of growth at 1000 µg/mL was determined as 20%. In addition, the inhibition at 200 µg/mL in the data set with Nakaseomyces glabratus turned out to be 0%; in the data set with Fusarium solani it was 0%; in the data set with Microsporum canis, 0%; with Aspergillus flavus it was 20%; in the data set on Candida albicans, 0%. For the same compound, the LC50 at 24 h in [3] was > 1190 µM. Moreover, the inhibition in the data set filed under Homo sapiens [4] was 18.9%; in the data set listed under Homo sapiens [5], 4.5%; in the data set listed under Homo sapiens [6], 6.6%; in the data set filed under Homo sapiens [7], 8%; in the data set listed under Homo sapiens [8] it was 4%. Also, the inhibition of growth at 10 µg/mL in the data set with Lemna aequinoctialis [9] turned out to be 10%.

Turning to `Cc1cccc(NC(=S)N/N=C2\C(=O)Nc3ccc([N+](=O)[O-])cc32)c1`, the inhibition of growth at 100 µg/mL with Lemna aequinoctialis [1] amounted to 20%. Besides, the inhibition of growth at 1000 µg/mL in the data set on Lemna aequinoctialis [2] was determined as 25%. Also, the inhibition at 200 µg/mL was found to be 0% in the data set on Nakaseomyces glabratus; 30% in the data set on Fusarium solani; 0% with Microsporum canis; 0% in the data set with Aspergillus flavus; 0% in the data set on Candida albicans. In addition, the LC50 at 24 h in data set [3] is > 1400 µM. Besides, the inhibition in the data set listed under Homo sapiens [4] turned out to be 6.5%; in the data set filed under Homo sapiens [5], 5.8%; in the data set listed under Homo sapiens [6], 13.9%; in the data set listed under Homo sapiens [7] it was 22%; in the data set listed under Homo sapiens [8], 34%. The inhibition of growth at 10 µg/mL in the data set on Lemna aequinoctialis [9] came to 10%.

In the case of `COc1ccc(OC)c(NC(=S)N/N=C2\C(=O)Nc3ccc([N+](=O)[O-])cc32)c1`, in the data set on Lemna aequinoctialis [1], the inhibition of growth at 100 µg/mL was 30%. Moreover, the inhibition of growth at 1000 µg/mL with Lemna aequinoctialis [2] is 35%. Further, the inhibition at 200 µg/mL is 0% in the data set with Nakaseomyces glabratus; 0% in the data set with Fusarium solani; 20% with Microsporum canis; 40% in the data set on Aspergillus flavus; 0% with Candida albicans. Further, the LC50 at 24 h in [3] was > 1240 µM. The inhibition was determined as 34.5% in the data set filed under Homo sapiens [4]; 25.9% in the data set filed under Homo sapiens [5]; 15.6% in the data set filed under Homo sapiens [6]; 17.8% in the data set filed under Homo sapiens [7]; 11% in the data set filed under Homo sapiens [8]. Moreover, in the data set with Lemna aequinoctialis [9], the inhibition of growth at 10 µg/mL amounted to 25%.

Take `O=C1Nc2ccc([N+](=O)[O-])cc2/C1=N/NC(=S)Nc1ccccc1C(F)(F)F`: the inhibition of growth at 100 µg/mL with Lemna aequinoctialis [1] was found to be 15%. Further, the inhibition of growth at 1000 µg/mL with Lemna aequinoctialis [2] is 25%. Moreover, the inhibition at 200 µg/mL worked out at 0% in the data set on Nakaseomyces glabratus; 0% with Fusarium solani; 20% in the data set on Microsporum canis; 0% in the data set on Aspergillus flavus; 0% with Candida albicans. Also, in [3], the LC50 at 24 h was > 1220 µM. For the same compound, the inhibition in the data set filed under Homo sapiens [4] turned out to be 21.6%; in the data set listed under Homo sapiens [5], 23%; in the data set listed under Homo sapiens [6] it was 30.9%; in the data set filed under Homo sapiens [7], 20.9%; in the data set listed under Homo sapiens [8] it was 21%. The inhibition of growth at 10 µg/mL in the data set on Lemna aequinoctialis [9] was found to be 10%.

Turning to `COc1ccc(NC(=S)N/N=C2\C(=O)Nc3ccc([N+](=O)[O-])cc32)c(OC)c1`, the inhibition of growth at 100 µg/mL with Lemna aequinoctialis [1] amounted to 25%. The inhibition of growth at 1000 µg/mL with Lemna aequinoctialis [2] came out at 30%. Besides, the inhibition at 200 µg/mL in the data set with Nakaseomyces glabratus was determined as 0%; with Fusarium solani it was 0%; in the data set on Microsporum canis, 20%; with Aspergillus flavus, 20%; in the data set on Candida albicans, 0%. Besides, the LC50 at 24 h in data set [3] was > 1240 µM. The same compound registered an IC50 in [10] of 27.9 µM. The inhibition in the data set listed under Homo sapiens [4] was determined as 68%; in the data set listed under Homo sapiens [5], 66.8%; in the data set filed under Homo sapiens [6], 61%; in the data set listed under Homo sapiens [7], 53.5%; in the data set listed under Homo sapiens [8], 37.9%. For the same compound, the inhibition of growth at 10 µg/mL with Lemna aequinoctialis [9] amounted to 15%.

With `C=CCNC(=S)N/N=C1\C(=O)Nc2ccc([N+](=O)[O-])cc21`, in the data set on Lemna aequinoctialis [1], the inhibition of growth at 100 µg/mL turned out to be 35%. In addition, in the data set with Lemna aequinoctialis [2], the inhibition of growth at 1000 µg/mL was 50%. In addition, the inhibition at 200 µg/mL with Nakaseomyces glabratus amounted to 0%; in the data set with Fusarium solani, 0%; in the data set on Microsporum canis, 20%; in the data set with Aspergillus flavus it was 0%; in the data set on Candida albicans, 0%. In addition, the LC50 at 24 h in data set [3] is > 1630 µM. The inhibition in the data set listed under Homo sapiens [4] turned out to be 21.6%; in the data set filed under Homo sapiens [5] it was 15%; in the data set filed under Homo sapiens [6], 12%; in the data set filed under Homo sapiens [7], 8%; in the data set filed under Homo sapiens [8], 15.9%. Also, the inhibition of growth at 10 µg/mL in the data set with Lemna aequinoctialis [9] was determined as 25%.

As to `O=C1Nc2ccc([N+](=O)[O-])cc2/C1=N/NC(=S)Nc1ccc(I)cc1`, the inhibition of growth at 100 µg/mL in the data set with Lemna aequinoctialis [1] stood at 10%. In the data set with Lemna aequinoctialis [2], the inhibition of growth at 1000 µg/mL amounted to 25%. For the same compound, the inhibition at 200 µg/mL with Nakaseomyces glabratus, in the data set on Fusarium solani, with Microsporum canis, in the data set on Aspergillus flavus and with Candida albicans was 0% throughout. For the same compound, in [3], the LC50 at 24 h was > 1070 µM. The compound further displayed an IC50 in data set [10] of 0.901 µM. Further, the inhibition in the data set listed under Homo sapiens [4] stood at 57%; in the data set filed under Homo sapiens [5], 51%; in the data set filed under Homo sapiens [6], 52%; in the data set listed under Homo sapiens [7], 47%; in the data set listed under Homo sapiens [8], 50%. Besides, in the data set with Lemna aequinoctialis [9], the inhibition of growth at 10 µg/mL stood at 5%.

Consider `Cc1ccc(NC(=S)N/N=C2\C(=O)Nc3ccc([N+](=O)[O-])cc32)cc1`, for which the inhibition of growth at 100 µg/mL in the data set on Lemna aequinoctialis [1] came out at 20%. In addition, the inhibition of growth at 1000 µg/mL with Lemna aequinoctialis [2] is 30%. The inhibition at 200 µg/mL in the data set with Nakaseomyces glabratus was 0%; in the data set on Fusarium solani, 30%; in the data set with Microsporum canis, 40%; in the data set on Aspergillus flavus, 30%; with Candida albicans, 0%. Besides, in data set [3], the LC50 at 24 h was > 1400 µM. The inhibition turned out to be 8% in the data set listed under Homo sapiens [4], 4% in the data set listed under Homo sapiens [6], 4% in the data set listed under Homo sapiens [7] and 7% in the data set filed under Homo sapiens [8]. In addition, in the data set listed under Homo sapiens [5], the inhibition entry is “inactive”. In the data set with Lemna aequinoctialis [9], the inhibition of growth at 10 µg/mL was determined as 15%.

With `N#Cc1cccc(NC(=S)N/N=C2\C(=O)Nc3ccc([N+](=O)[O-])cc32)c1`, the inhibition of growth at 100 µg/mL with Lemna aequinoctialis [1] was found to be 15%. For the same compound, the inhibition of growth at 1000 µg/mL in the data set with Lemna aequinoctialis [2] was found to be 25%. The inhibition at 200 µg/mL with Nakaseomyces glabratus was 0%; in the data set with Fusarium solani, 15%; with Microsporum canis, 20%; with Aspergillus flavus, 20%; in the data set with Candida albicans it was 0%. The LC50 at 24 h in [3] came out at 1160 µM. Also, the inhibition was 20.7% in the data set listed under Homo sapiens [4]; 16% in the data set filed under Homo sapiens [5]; 1.8% in the data set listed under Homo sapiens [6]; 12.6% in the data set filed under Homo sapiens [7]; 8.9% in the data set filed under Homo sapiens [8]. For the same compound, the inhibition of growth at 10 µg/mL with Lemna aequinoctialis [9] was 5%.

The compound `NC(N)=S` [THIOUREA] gave an IC50 in data set [10] of 50.1 µM. Besides, the inhibition in the data set listed under Homo sapiens [4] was found to be 8.16%; in the data set listed under Homo sapiens [5], 14.5%; in the data set filed under Homo sapiens [6] it was 20.9%; in the data set listed under Homo sapiens [7], 8.09%; in the data set listed under Homo sapiens [8], 94.3%.

Source of the values: ChEMBL document CHEMBL3045203, “Synthesis and biological evaluation of some N4-substituted 5-nitroisatin-3-thiosemicarbazones” (Med Chem Res, 2012).
